Values after ≈ are worked out from the molar mass of the structure shown.
test system: M. tuberculosis sp. 210; assay: Tuberculostatic activity, classical test-tube method of successive dilution; type: cell-based; conditions: Mycobacterium tuberculosis; sp. 210, wild strain resistant to PAS, INH, ETB, RFP

| Compound | MIC [µg/mL] |
| --- | --- |
| NC(=NS(=O)(=O)c1cnccc1Cl)c1ncccn1 [Compound 8, N′-[(4-Chloropyridin-3-yl)sulfonyl]pyrimidine-2-carboximidamide] | 50 (≈ 168 µM) |
| NC(=NS(=O)(=O)c1ccccc1Cl)c1ncccn1 [Compound 7, N′-[(2-Chlorophenyl)sulfonyl]pyrimidine-2-carboximidamide] | 50 (≈ 168 µM) |
| NC(=NS(=O)(=O)c1cnccc1Cl)c1ccccn1 [Compound 2, N′-[(4-Chloropyridin-3-yl)sulfonyl]-2-pyridinecarboximidamide] | 50 (≈ 168 µM) |
| NNC(=O)c1ccncc1 [INH, isoniazid, reference compound] | 1.1 (≈ 8.02 µM) |
| NC(=NS(=O)(=O)c1cnccc1Cl)c1cnccn1 [Compound 10, N′-[(4-Chloropyridin-3-yl)sulfonyl]pyrazine-2-carboximidamide] | 50 (≈ 168 µM) |

Source: PMC4494771, “Synthesis, structure, and biological activity of novel heterocyclic sulfonyl-carboximidamides” (Monatshefte Fur Chemie, 2013)
